According to ChEMBL document CHEMBL1142091, “Azithromycin selectively reduces tumor necrosis factor alpha levels in cystic fibrosis airway epithelial cells” (2007):
Activity calls are given as the source filed them. No cut-off for these calls is given here.

Columns and labels:
Homo sapiens [1] = species: Homo sapiens; assay: (§1) Reduction of NF-kappaB binding to DNA in cystic fibrosis 2CFSMEo cells at 8 ug after 24 hrs; format: functional
IB3-1 [2] = assay: Reduction of NF-kappaB binding to DNA in cystic fibrosis IB3-1 cells at 8 ug after 24 hrs; format: functional
Homo sapiens [3] = species: Homo sapiens; assay: (§2) Reduction of NF-kappaB binding to DNA in cystic fibrosis 16HBE14o-AS3 cells at 8 ug after 24 hrs; format: functional
Homo sapiens [4] = species: Homo sapiens; assay: (§3) Reduction of Sp1 binding to DNA in cystic fibrosis 16HBE14o-AS3 cells at 8 ug after 24 hrs; format: functional
Homo sapiens [5] = species: Homo sapiens; assay: (§4) Reduction of Sp1 binding to DNA in cystic fibrosis 2CFSMEo cells at 8 ug after 24 hrs; format: functional
IB3-1 [6] = assay: Reduction of Sp1 binding to DNA in cystic fibrosis IB3-1 cells at 8 ug after 24 hrs; format: functional
[7] = Cell viability of C38 cells at 8 ug/ml after 24 hrs by trypan blue exclusion test
[8] = as §1; format: functional, Homo sapiens; parameters: scale not given: the % may be the effect or the level left
[9] = Cell viability of 16HBE14o-S1 cells at 16 ug/ml after 24 hrs by trypan blue exclusion test; format: functional, cell-based; settings: Homo sapiens
[10] = Cell viability of C38 cells at 16 ug/ml after 24 hrs by trypan blue exclusion test
[11] = Cell viability of 2CFSMEo cells at 8 ug/ml after 24 hrs by trypan blue exclusion test; format: functional; settings: Homo sapiens
[12] = Cell viability of 2CFSMEo cells at 16 ug/ml after 24 hrs by trypan blue exclusion test; format: functional; settings: Homo sapiens
IB3-1 [13] = assay: Reduction of TNFalpha protein level in cystic fibrosis IB3-1 cells at 8 ug after 24 hrs by ELISA relative to control; format: functional, Homo sapiens; parameters: scale not given: the % may be the effect or the level left
[14] = as §2; format: functional, Homo sapiens; parameters: scale not given: the % may be the effect or the level left
[15] = Reduction of TNFalpha protein level in cystic fibrosis 2CFSMEo cells at 8 ug after 24 hrs by ELISA relative to control; format: functional, Homo sapiens; parameters: scale not given: the % may be the effect or the level left
[16] = Cell viability of 16HBE14o-AS3 cells at 16 ug/ml after 24 hrs by trypan blue exclusion test; format: functional; settings: Homo sapiens
[17] = Reduction of TNFalpha mRNA level in cystic fibrosis 2CFSMEo cells at 8 ug after 24 hrs relative to control; format: functional, Homo sapiens; parameters: scale not given: the % may be the effect or the level left
[18] = as §3; format: functional, Homo sapiens; parameters: scale not given: the % may be the effect or the level left
[19] = Reduction of TNFalpha protein level in cystic fibrosis 16HBE14oAS3 cells at 8 ug after 24 hrs by ELISA relative to control; format: functional, Homo sapiens; parameters: scale not given: the % may be the effect or the level left
[20] = Cell viability of 16HBE14o-AS3 cells at 8 ug/ml after 24 hrs by trypan blue exclusion test; format: functional; settings: Homo sapiens
[21] = Cell viability of IB3-1 cells at 16 ug/ml after 24 hrs by trypan blue exclusion test; format: functional, cell-based; settings: Homo sapiens
[22] = as §4; format: functional, Homo sapiens; parameters: scale not given: the % may be the effect or the level left
IB3-1 [23] = assay: Reduction of TNFalpha mRNA level in cystic fibrosis IB3-1 cells at 8 ug after 24 hrs relative to control; format: functional, Homo sapiens; parameters: scale not given: the % may be the effect or the level left
[24] = Reduction of TNFalpha mRNA level in cystic fibrosis 16HBE14o-AS3 cells at 8 ug after 24 hrs relative to control; format: functional, Homo sapiens; parameters: scale not given: the % may be the effect or the level left
[25] = Cell viability of 16HBE14o-S1 cells at 8 ug/ml after 24 hrs by trypan blue exclusion test; format: functional, cell-based; settings: Homo sapiens
[26] = Cell viability of IB3-1 cells at 8 ug/ml after 24 hrs by trypan blue exclusion test; format: functional, cell-based; settings: Homo sapiens

Compound: CO[C@@H]1[C@@H](O[C@@H]2O[C@H](C)[C@@H](O[C@H]3C[C@@](C)(O)[C@@H](OC(=O)CC(C)C)[C@H](C)O3)[C@H](N(C)C)[C@H]2O)[C@@H](CC=O)C[C@@H](C)[C@@H](O)/C=C/C=C/C[C@@H](C)OC(=O)C[C@H]1OC(C)=O
- Activity (Homo sapiens [1]): inactive
- Activity (IB3-1 [2]; Homo sapiens): inactive
- Activity (Homo sapiens [3]): inactive
- Activity (Homo sapiens [4]): inactive
- Activity (Homo sapiens [5]): inactive
- Activity (IB3-1 [6]; Homo sapiens): inactive

Compound: CC[C@H]1OC(=O)[C@H](C)[C@@H](O[C@H]2C[C@@](C)(OC)[C@@H](O)[C@H](C)O2)[C@H](C)[C@@H](O[C@@H]2O[C@H](C)C[C@H](N(C)C)[C@H]2O)[C@](C)(O)C[C@@H](C)CN(C)[C@H](C)[C@@H](O)[C@]1(C)O [AZITHROMYCIN]
- Activity [7]: >95%
- Activity [8]: 45%
- Activity [9]: < 95%
- Activity [10]: <95%
- Activity [11]: > 95%
- Activity (IB3-1 [2]): 40%
- Activity [12]: < 95%
- Activity (IB3-1 [13]): 45%
- Activity [14]: 45%
- Activity [15]: 40%
- Activity [16]: < 95%
- Activity [17]: 30%
- Activity [18]: 64%
- Activity [19]: 50%
- Activity [20]: > 95%
- Activity [21]: < 95%
- Activity [22]: 65%
- Activity (IB3-1 [23]): 35%
- Activity [24]: 25%
- Activity [25]: > 95%
- Activity [26]: > 95%
- Activity (IB3-1 [6]): 60%
